Earlier results as cited in patent US20190151294A1, “TREATMENT OF ALCOHOLISM AND DEPRESSION AND/OR DYSPHORIC MOOD USING IBUDILAST” (MEDICINOVA, INC., priority 2016, published 2019).

Tested on: P and HAD1 rats and mouse model of ethanol dependence
Details: in these models of elevated alcohol intake; cited from earlier work

| Compound | selective reduction of ethanol drinking |
| --- | --- |
| OCCOCCN1CCN(C2=Nc3ccccc3Sc3ccccc32)CC1 [quetiapine] | do not selectively reduce ethanol drinking |
| CC[C@@H](C(N)=O)N1CCCC1=O [levatiracetam] | do not selectively reduce ethanol drinking |
